These results are taken from publication PMC6006285, “Specific stereochemistry of OP-1074 disrupts estrogen receptor alpha helix 12 and confers pure antiestrogenic activity” (Nature Communications, 2018).

Where “and” joins values, the source holds several entries; their conditions need not be identical. Equal entries are not always repeated. Where two headings read alike, the source gives them in different places.

Experiment [1] relates to AP activity in Ishikawa uterine cells. Kind of experiment: Alkaline phosphatase (AP) assay, agonist mode (absence of E2). Type of experiment: cell-based, human. The settings on record: for Induction of AP activity (% E2): Maximum AP activity observed relative to positive control, 500 pM E2, means of n independent experiments ±s.d.; for Maximal AP activity in agonist mode relative to E2 control: absence of E2, normalized to 500 pM E2, representative experiment (Fig. 2a). Here is the method: (§1) Our primary screen to distinguish pure antiestrogens from SERMs was induction of alkaline phosphatase (AP) activity in Ishikawa uterine cells. […] The reference SERM used in our screen was endoxifen (N-desmethyl-4-hydroxytamoxifen), the most abundant bioactive metabolite of tamoxifen.
(§2) Shown is a representative figure analyzed and presented as above.
(§3) At least 4 h later cells were treated with antiestrogens and media was diluted to 2.5% stripped FBS. Cells were incubated for 3 days, media removed and plates frozen at −80 °C. Thawed plates were incubated with a chromogenic substrate of AP, p-nitrophenyl phosphate (ThermoFisher Scientific, #36721), for 40–60 min at 40 °C, and absorbance read at 405 nm on the Varioskan Lux multimodal plate reader (ThermoFisher Scientific, #VLBL00D0).

The subject of experiment [2] is E2-stimulated AP activity in Ishikawa cells. As to the kind of experiment: Alkaline phosphatase (AP) assay, antagonist mode (presence of 500 pM E2). The note with it: for Antagonism of E2-stimulated AP activity: 500 pM E2. Type of experiment: cell-based, human. As for the experimental part: as §1, §2, §3
In a further experiment the test system is MCF-7 cells. Kind of experiment: Inhibition of E2-stimulated proliferation of MCF-7 cells. Type of experiment: cell-based. The settings on record: Homo sapiens.
Another experiment concerns CAMA-1 cells. As to the kind of experiment: Inhibition of E2-stimulated proliferation of CAMA-1 cells. The note with it: Homo sapiens, CAMA-1, 192 h; read-out: CAMA-1 IC50 proliferation (Fig. 3c). Type of experiment: cell-based. Here is the method: Shown is a representative figure analyzed and presented as above. d, Western blot of destabilization of ERα protein by OP-1074.
Proliferation was measured using CyQuant fluorescent DNA-binding dye kit (ThermoFisher Scientific, #C7026) using 1:200 GR dye and reading fluorescence at 485 nm excitation and 538 nm emission on the Varioskan Lux multimodal plate reader.

The subject of experiment [3] is estrogen responsive reporter gene, ERE-tk109-Luc, in MCF-7 cells. Kind of experiment: Inhibition of E2-stimulated transcription of ERE-tk109-Luc reporter gene in MCF-7 cells. Type of experiment: cell-based. The note with it: Homo sapiens.
The subject of the next experiment is MCF7/HER2/neu tumors. As for the experimental part:
MCF7/HER2/neu cells were grown in culture and implanted into 6–7 week athymic ovariectomized female nu/nu mice (Taconic Biosciences). To stimulate tumor growth, 0.18 mg estradiol 90 day release pellets (Innovative Research) were implanted along with cells. […] Tumor volume and bodyweight were measured twice weekly. At end of the study animals were euthanized, tumors resected and snap frozen in liquid nitrogen, and uteri were resected, weighed, and fixed in 10% formalin.

The target of another experiment is T1, ERα (Homo sapiens, UniProt P03372).
T1 construct: endogenous in cells
T1 sequence (P03372 1-595): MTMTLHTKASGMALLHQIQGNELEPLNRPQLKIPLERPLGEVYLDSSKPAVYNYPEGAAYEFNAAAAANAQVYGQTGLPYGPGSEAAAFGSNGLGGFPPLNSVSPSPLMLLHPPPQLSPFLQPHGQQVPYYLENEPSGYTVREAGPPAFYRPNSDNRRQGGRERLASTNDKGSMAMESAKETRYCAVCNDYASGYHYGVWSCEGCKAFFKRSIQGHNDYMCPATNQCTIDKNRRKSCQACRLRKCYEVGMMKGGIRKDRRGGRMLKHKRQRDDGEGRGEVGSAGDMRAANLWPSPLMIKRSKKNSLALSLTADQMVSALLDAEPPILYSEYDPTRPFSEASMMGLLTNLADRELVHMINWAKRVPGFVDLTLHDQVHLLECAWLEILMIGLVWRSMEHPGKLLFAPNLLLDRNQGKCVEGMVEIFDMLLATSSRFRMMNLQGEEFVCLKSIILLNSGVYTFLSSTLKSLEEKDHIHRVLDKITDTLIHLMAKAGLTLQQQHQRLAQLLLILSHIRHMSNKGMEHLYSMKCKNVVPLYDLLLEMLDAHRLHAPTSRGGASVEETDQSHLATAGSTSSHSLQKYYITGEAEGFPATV
As to the kind of experiment: ERα protein levels by immunoblotting. Type of experiment: cell-based. The note with it: MCF-7 cells, 100 nM ligand, 24 h, means of n experiments ±s.d. Here is the method: However, it is conceivable that under some clinical contexts SERD activity may still be a desirable feature by reducing the number of functional receptors in tumors.
Imaging was performed on FluorChem Imager by Alpha Innotech. […] An uncropped image of the immunoblot is shown in Supplementary Fig. 5.

The target of experiment [4] is T2, Estrogen Receptor α LBD (ERα) (Homo sapiens, UniProt P03372).
T2 construct: 2 nM biotinylated Estrogen Receptor α LBD (ERα) was incubated; biotin (biotinylated)
T2 sequence (P03372 311-547 limits assumed): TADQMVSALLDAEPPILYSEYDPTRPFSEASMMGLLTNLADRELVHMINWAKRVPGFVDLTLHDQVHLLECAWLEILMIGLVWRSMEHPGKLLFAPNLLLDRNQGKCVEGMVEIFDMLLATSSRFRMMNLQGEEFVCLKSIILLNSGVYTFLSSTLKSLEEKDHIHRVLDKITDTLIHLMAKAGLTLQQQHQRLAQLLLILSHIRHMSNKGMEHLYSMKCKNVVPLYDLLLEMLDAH
As to the kind of experiment: Competitive ligand binding assay with [3H]-E2. The settings on record: for IC50: 10 nM [3H]-E2 tracer, 2 nM biotinylated ERα LBD, representative experiment. Here is the method:
Experimental data points are mean + /− s.e.m. of triplicate samples in a representative experiment. […] Experimental data points are mean + /− s.d. of triplicate samples in a representative experiment
Triplicate reactions were vortexed and 100 μL was added in triplicate to a 96-well streptavidin flashplate (Perkin Elmer #SMP103001PK), which incubated overnight at 4 °C prior to reading.

For experiment [5], the system named is uterus of ovariectomized mice. More on the design: method as in PMID 15968821. The settings on record: cited from earlier work.
Another experiment has as its system AP. Also noted: method as in Holinka et al. The settings on record: ref Holinka et al.; cited from earlier work.
The subject of a further experiment is uterus. The note with it: cited from earlier work.
The mark [6] stands for this setting: MCF7, 168 h, read-out: MCF-7 IC50 proliferation (Fig. 3b).
Where [7] appears, read: MCF7, read-out: IC50 proliferation.
The mark [8] stands for this setting: MCF7, 22 h, read-out: IC50 inhibition of E2-stimulated transcription (Fig. 3a).
The mark [9] stands for this setting: MCF7, 24 h, read-out: IC50 transcription.
Setting [10] is: number of 10 tumors at end of study, OP-1074 100 mg/kg oral twice daily, fulvestrant 100 mg/kg subcutaneous daily.

For `C[C@]12CC[C@@H]3c4ccc(O)cc4C[C@@H](CCCCCCCCC[S+]([O-])CCCC(F)(F)C(F)(F)F)[C@H]3[C@@H]1CC[C@@H]2O` (some centres unmarked) [fulvestrant, reference compound], in [1] (3 days, absence of E2, all doses tested), the “AP activity in agonist mode” value was “lacked any AP activity”. The “Induction of AP activity (% E2)” value in experiment [1] is on record as 0.05% ± 2.7 (n = 58) % E2. Moreover, the IC50 in experiment [2] (Homo sapiens, Ishikawa, 72 h, read-out: IC50 inhibition of E2-stimulated AP activity) is 3 nM; in the experiment with MCF-7 cells (setting [6]), 2.2 nM; with MCF-7 cells (setting [7]) it was 2.5 ± 0.3 nM; in the experiment on CAMA-1 cells, 1.9 nM; in [3] (setting [8]), 6.3 nM; in experiment [3] (setting [9]) it was 2 ± 0.2 nM. For the same compound, the “Antagonism of E2-stimulated AP activity” value in [2] (Ishikawa cells) was “completely inhibited E2-stimulated AP activity”. Further, in the experiment with MCF7/HER2/neu tumors (setting [10]), the “Tumors shrunk / growth inhibited by >50%” value was 5/10. The “Tumors shrunk >80%” value with MCF7/HER2/neu tumors (setting [10]) is on record as 1/10.

Take `CC/C(=C(\c1ccccc1)c1ccc(OCCN(C)C)cc1)c1ccccc1` [tamoxifen, reference compound]: the “Tumors shrunk below the initial tumor size” value in the experiment on MCF7/HER2/neu tumors (end of study, 100 mg/kg tamoxifen daily by oral gavage) is listed as “half”.

As to `CC1=C(c2ccc(O)cc2)[C@H](c2ccc(OCCN3CC[C@H](C)C3)cc2)Oc2cc(O)ccc21` [OP-1154], the “Maximal AP activity in agonist mode relative to E2 control” value in experiment [1] (3 days) was found to be 39%. In experiment [1], the “Induction of AP activity (% E2)” value was 40% ± 6.5 (n = 3) % E2. Moreover, in [2] (Ishikawa cells), the “Antagonism of E2-stimulated AP activity” value is “did not completely antagonize E2-stimulated AP activity”. Moreover, on ERα, the “Relative ERα protein levels (% vehicle)” value is recorded as 123% ± 22 (n = 4) % vehicle. Moreover, the IC50 in the experiment on MCF-7 cells (setting [6]) was found to be 6.9 nM; with MCF-7 cells (setting [7]), 6 ± 1.1 nM; with CAMA-1 cells it was 8.1 nM; in [3] (setting [8]), 4 nM; in experiment [3] (setting [9]), 5.6 ± 2.1 nM; in experiment [4], 14.3 ± 0.06 nM. The “Binding affinity relative to OP-1074 and OP-1156 (fold lower)” value in [4] ([3H]-E2 competitive binding) is “approximately 2 fold”.

With `CC1=C(c2ccc(O)cc2)C(c2ccc(OCCN3CCC[C@@H]3C)cc2)Oc2cc(O)ccc21` (some centres unmarked) [OP-1047], the “Induction of AP activity (% E2)” value in experiment [1] is reported as 136% ± 15 (n = 4) % E2. For the same compound, the “Relative ERα protein levels (% vehicle)” value on ERα is 319% ± 100 (n = 5) % vehicle. In addition, the IC50 with MCF-7 cells (setting [7]) was determined as 5.5 ± 1.4 nM; in experiment [3] (setting [9]) it was 1.3 ± 0.4 nM.

In the case of `CC/C(=C(\c1ccc(O)cc1)c1ccc(OCCNC)cc1)c1ccccc1` [endoxifen, (Z)-4-hydroxy-N-desmethyltamoxifen, reference compound], in experiment [1] (3 days), the “Maximal AP activity in agonist mode relative to E2 control” value came out at 82%. The “Induction of AP activity (% E2)” value in experiment [1] was 73% ± 10 (n = 8) % E2. The “AP activity remaining in antagonist mode” value in experiment [2] (Ishikawa cells, 500 pM E2, 1 µM drug) worked out at 58%. The “Relative ERα protein levels (% vehicle)” value at ERα is on record as 139% ± 34 (n = 20) % vehicle. The IC50 in the experiment with MCF-7 cells (setting [7]) came to 13 ± 2.2 nM; in experiment [3] (setting [9]), 6.3 ± 1.3 nM.

For the compound `CC1=C(c2ccc(O)cc2)[C@H](c2ccc(OCCN3CCCC3)cc2)Oc2cc(O)ccc21` [OP-1156], in [1] (3 days), the “Maximal AP activity in agonist mode relative to E2 control” value worked out at 40%. For the same compound, the “Induction of AP activity (% E2)” value in experiment [1] is reported as 40% ± 7.8 (n = 3) % E2. At ERα, the “Relative ERα protein levels (% vehicle)” value is listed as 152% ± 31 (n = 4) % vehicle. The IC50 in the experiment with MCF-7 cells (setting [6]) was 6.3 nM; with MCF-7 cells (setting [7]) it was 5.2 ± 1.3 nM; in the experiment on CAMA-1 cells, 4.2 nM; in [3] (setting [8]) it was 4 nM; in experiment [3] (setting [9]), 5.9 ± 2.1 nM; in experiment [4], 6 nM and 6.13 nM. Also, the Uterine wet weight result in experiment [5] is given as “increased uterine wet weight”.

As to `CC1=C(c2ccc(O)cc2)C(c2ccc(OCCN3CCC[C@H]3C)cc2)Oc2cc(O)ccc21` (some centres unmarked) [OP-1039], the “Induction of AP activity (% E2)” value in experiment [1] is listed as 49% ± 18 (n = 8) % E2. At ERα, the “Relative ERα protein levels (% vehicle)” value was 119% ± 13 (n = 6) % vehicle. In addition, the IC50 in the experiment on MCF-7 cells (setting [7]) came to 6.4 ± 1 nM; in [3] (setting [9]), 0.5 ± 0.1 nM.

In the case of `CC/C(=C(\c1ccc(O)cc1)c1ccc(OCCN(C)C)cc1)c1ccccc1` [4-OHT, (Z)-4-trans-hydroxytamoxifen], the “Activation of AP” value in the experiment on AP was 1.3 fold.

Turning to `CC/C(=C(/c1ccc(/C=C/C(=O)O)cc1)c1ccc2[nH]ncc2c1)c1ccc(F)cc1Cl` [GDC-0810], the “Agonist effects in the uterus” value in the experiment on uterus is recorded as “mild to moderate agonist effects in the uterus”.

With `CCNCCc1ccc(CN(CC)c2cc(OC)ccc2[C@@H]2CCc3cc(O)ccc3C2)cc1` [RAD1901], the “Agonist effects in the uterus” value with uterus is on record as “mild to moderate agonist effects in the uterus”.
